pEC50: −log10 of the molar value. “Also recorded” adds a separate entry of the source.
Experiments:
[1] = system: WNV (epidemic strain 3356); assay: microbe, parasite or virus in culture; format: cell-based; conditions: West Nile virus, Vero, 42 h
[2] = system: G6871A mutant virus (WNV); format: cell-based; conditions: Vero cells, 0.1 MOI
in vitro = conditions: African green monkey
WEEV (strain Cova 746) = format: cell-based, Western equine encephalitis virus
WNV VLP = format: cell-based, West Nile virus; conditions: 1.5 μM
DENV-1 VLP = format: cell-based, dengue virus; conditions: 1.5 μM
[3] = system: Rluc2A-Rep of DENV-1 in BHK-21 cells; format: cell-based, dengue virus
[4] = system: Vero cells containing WNV replicon (Rluc-Neo-Rep); format: cell-based, West Nile virus; conditions: 1.5-1 μM for 24 h or 48 h
[5] = system: Rluc2A-Rep of WNV in BHK-21 cells; format: cell-based, West Nile virus
WNV (WT and G6871A MT) = format: cell-based; conditions: 1.2 μM; Vero cells, MOI 5; each time point
poliovirus = conditions: cited from earlier work
WNV MTase = WNV MTase (West Nile virus, UniProt Q9Q6P4); assay: Enzyme assay, recombinant WNV MTase; conditions: concentrations up to 100 μM
WNV RdRp = WNV RdRp (West Nile virus, UniProt Q9Q6P4); assay: Enzyme assay, recombinant WNV RdRp; conditions: concentrations up to 100 μM
[6] = system: G6871A mutant WNV replicon (Rluc2A-Rep); format: cell-based, West Nile virus; conditions: 1.5 μM; BHK-21 cells
WNV protease (with NS2B) = WNV protease (with NS2B) (West Nile virus, UniProt Q9Q6P4); assay: Enzyme assay, recombinant WNV protease; conditions: concentrations up to 100 μM
[7] = system: Vero cells containing DENV-1 replicon (Rluc-Neo-Rep); format: cell-based, dengue virus; conditions: 1.5-1 μM for 24 h or 48 h
[8] = system: VSV (New Jersey serotype); format: cell-based, vesicular stomatitis virus
WNV = assay: Time-of-addition analysis in WNV infection; format: cell-based, West Nile virus; conditions: 1.2 μM; Vero cells, WNV MOI 10; titers at 20 h post-infection
[9] = system: lycorine-resistant WNV (P12 viruses); assay: Resistance assay, lycorine-resistant P12 WNV; format: cell-based, West Nile virus; conditions: 1.2 μM
WNV NTPase = WNV NTPase (West Nile virus, UniProt Q9Q6P4); assay: Enzyme assay, recombinant WNV NTPase; conditions: concentrations up to 100 μM
HIV-1 = conditions: at a noncytotoxic concentration; Szlavik et al., 2004; cited from earlier work

Sequence of WNV protease (with NS2B) (Q9Q6P4 1506-2124): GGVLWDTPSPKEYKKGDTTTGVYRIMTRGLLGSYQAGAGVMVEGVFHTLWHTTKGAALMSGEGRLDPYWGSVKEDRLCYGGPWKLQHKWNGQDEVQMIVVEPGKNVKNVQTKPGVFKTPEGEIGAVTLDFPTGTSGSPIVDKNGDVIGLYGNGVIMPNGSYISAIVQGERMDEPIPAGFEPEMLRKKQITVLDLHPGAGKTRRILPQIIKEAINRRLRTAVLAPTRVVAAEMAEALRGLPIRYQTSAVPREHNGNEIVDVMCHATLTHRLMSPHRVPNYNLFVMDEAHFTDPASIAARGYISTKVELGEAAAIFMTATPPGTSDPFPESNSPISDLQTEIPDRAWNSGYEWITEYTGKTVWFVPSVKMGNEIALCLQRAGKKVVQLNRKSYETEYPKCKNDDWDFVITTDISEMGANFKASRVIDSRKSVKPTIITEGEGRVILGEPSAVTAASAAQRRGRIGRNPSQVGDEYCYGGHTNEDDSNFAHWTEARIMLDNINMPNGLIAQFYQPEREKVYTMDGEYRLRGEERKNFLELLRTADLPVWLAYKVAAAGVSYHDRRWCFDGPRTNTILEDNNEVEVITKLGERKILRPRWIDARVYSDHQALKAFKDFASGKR
Sequence of WNV protease (with NS2B) (Q9Q6P4 1375-1505): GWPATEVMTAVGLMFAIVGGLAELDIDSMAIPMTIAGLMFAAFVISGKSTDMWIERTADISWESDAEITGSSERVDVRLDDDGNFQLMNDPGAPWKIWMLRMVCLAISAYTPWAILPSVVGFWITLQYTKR
Sequence of WNV NTPase (Q9Q6P4 1506-2124): as the sequence (Q9Q6P4 1506-2124) above
Sequence of WNV RdRp (Q9Q6P4 2529-3433): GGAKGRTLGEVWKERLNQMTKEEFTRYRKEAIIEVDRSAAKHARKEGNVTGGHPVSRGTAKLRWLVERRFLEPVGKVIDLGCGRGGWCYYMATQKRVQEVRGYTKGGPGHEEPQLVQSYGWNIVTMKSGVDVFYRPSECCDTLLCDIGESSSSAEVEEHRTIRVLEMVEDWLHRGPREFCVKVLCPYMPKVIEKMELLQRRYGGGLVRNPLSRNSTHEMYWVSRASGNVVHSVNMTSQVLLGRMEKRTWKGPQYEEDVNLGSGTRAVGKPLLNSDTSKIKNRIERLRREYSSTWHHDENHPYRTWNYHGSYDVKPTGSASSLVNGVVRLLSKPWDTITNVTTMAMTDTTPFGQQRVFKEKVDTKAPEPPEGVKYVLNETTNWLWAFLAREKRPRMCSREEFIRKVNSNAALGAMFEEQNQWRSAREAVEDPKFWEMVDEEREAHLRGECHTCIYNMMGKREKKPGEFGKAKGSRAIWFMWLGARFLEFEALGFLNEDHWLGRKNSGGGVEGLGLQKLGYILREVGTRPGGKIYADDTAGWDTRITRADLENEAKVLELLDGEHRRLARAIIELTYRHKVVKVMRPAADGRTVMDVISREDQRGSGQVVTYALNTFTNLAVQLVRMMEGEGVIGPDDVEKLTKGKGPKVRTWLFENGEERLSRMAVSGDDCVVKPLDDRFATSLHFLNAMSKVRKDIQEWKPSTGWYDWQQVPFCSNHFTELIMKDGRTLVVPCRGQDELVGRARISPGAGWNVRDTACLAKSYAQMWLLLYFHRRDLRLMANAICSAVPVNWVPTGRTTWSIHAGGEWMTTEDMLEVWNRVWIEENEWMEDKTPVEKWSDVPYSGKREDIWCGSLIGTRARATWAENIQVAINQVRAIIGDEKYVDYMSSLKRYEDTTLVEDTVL
Sequence of WNV MTase (Q9Q6P4 2529-3433): as above

CC(=O)O[C@H]1[C@H]2c3cc4c(cc3CN3CCC(=C[C@@H]1OC(C)=O)[C@H]23)OCO4 [Compound 1180]
pEC50 [1]: 5.83

CC(=O)O[C@H]1[C@H]2c3cc4c(cc3CN3CCC(=C[C@@H]1O)[C@H]23)OCO4 [Compound 1181]
pEC50 [1]: 6.07

CC(=O)O[C@H]1[C@H]2c3cc4c(cc3CN(C(=O)OCC(Cl)(Cl)Cl)[C@@H]2C(CCCl)=C[C@@H]1OC(C)=O)OCO4 [Compound 1193]
CC50 (Vero cells; African green monkey): > 300 µM | pEC50 [1]: < 3.52

CC(=O)OCCC1=C[C@H](OC(C)=O)[C@@H](OC(C)=O)[C@H]2c3cc4c(cc3CN(C(=O)OCC(Cl)(Cl)Cl)[C@H]12)OCO4 [Compound 1194]
CC50 (Vero cells; African green monkey): > 300 µM | pEC50 [1]: 4.14

CC(=O)O[C@H]1[C@H]2c3cc4c(cc3C(=O)N3CCC(=C[C@@H]1OC(C)=O)[C@H]23)OCO4 [Compound 1197]
CC50 (Vero cells; African green monkey): > 300 µM | pEC50 [1]: ≤ 3.52

CC(C)(C)[Si](C)(C)O[C@H]1C=C2CCN3Cc4cc5c(cc4[C@H]([C@@H]1O)[C@@H]23)OCO5 [Compound 1198]
pEC50 [1]: 6.14

CC(=O)O[C@@H]1C(=O)C=C2CCN3Cc4cc5c(cc4[C@H]1[C@@H]23)OCO5 [Compound 1200]
resistance of G6871A mutant virus to the compound [2]: resistant | CC50 (in vitro): > 300 µM | CC50 (Vero cells; African green monkey): > 300 µM | pEC50 [1]: 6.72

O[C@H]1[C@H]2c3cc4c(cc3CN3CCC(=C[C@@H]1O)[C@H]23)OCO4 [Lycorine]
inhibition of WEEV (viral titer) (WEEV (strain Cova 746)): did not inhibit; also recorded: suppressed titers of neither WEEV nor VSV; also recorded: does not inhibit | reduction of luciferase signals, WNV VLP-infected cells (WNV VLP): 1,400 fold | reduction of luciferase signals, DENV-1 VLP-infected cells (DENV-1 VLP): 1,200 fold | suppression of early luciferase signals (viral translation), DENV-1 replicon ([3]; 1.5 μM, 2, 4, and 6 h p.t.): ≤ 30% | reduction of late luciferase signals (RNA synthesis), DENV-1 replicon ([3]; 1.5 μM, 24, 30 and 48 h p.t.): > 99% | luciferase activities in WNV Rluc-Neo-Rep cells [4]: reduced luciferase activities | resistance of G6871A mutant virus to the compound [2]: showed a resistance level close to those of the P12 viruses | suppression of early luciferase signals (viral translation), WNV replicon ([5]; 1.5 μM, 2, 4, and 6 h p.t.): ≤ 30% | reduction of late luciferase signals (RNA synthesis), WNV replicon ([5]; 1.5 μM, 24, 30 and 48 h p.t.): > 99% | viral protein expression (NS1, NS3, NS5), western blotting (WNV (WT and G6871A MT)): suppressed viral protein expression | suppression of poliovirus viral translation (poliovirus): ~90% | suppression of WNV MTase activity (WNV MTase): None of the enzyme activities were suppressed | CC50 (Vero cells; African green monkey): 24 µM | cell viability (Vero cells; African green monkey): > 90% | decrease of viability of Vero cells (Vero cells; at 31 μM): ~50% | suppression of WNV RdRp activity (WNV RdRp): None of the enzyme activities were suppressed | suppression of reporting signals at 2, 4, and 6 h p.t., G6871A mutant replicon [6]: ≤ 30% | suppression of WNV protease (with NS2B) activity (WNV protease (with NS2B)): None of the enzyme activities were suppressed | luciferase activities in DENV Rluc-Neo-Rep cells [7]: reduced luciferase activities | inhibition of VSV (viral titer) [8]: did not inhibit; also recorded: suppressed titers of neither WEEV nor VSV; also recorded: does not inhibit | antiviral activity when added after 10 h post-infection (WNV): completely lost its antiviral activity; also recorded: completely lost the inhibitory activity | increase of resistance of the P12 viruses over that of the WT [9]: approximately 100 fold | reduction of viral titers of P12 virus-infected cells ([9]; Vero cells, MOI 0.1, 42 h p.i.): approximately 10 fold | suppression of WNV NTPase activity (WNV NTPase): None of the enzyme activities were suppressed | inhibition of HIV-1 (HIV-1): does not inhibit | pEC50 [1]: 6.64
